Laboratory results: ChEMBL document CHEMBL4257535, “Design, synthesis and biological evaluation of AKT inhibitors bearing a piperidin-4-yl appendant” (Medchemcomm, 2018)
Activity calls are given as the source filed them. The calls are words filed in the database; no cut-off is given here.

Columns and labels:
PC-3 [1] = experiment: Induction of apoptosis in human PC3 cells assessed as necrotic cells at 1 uM after 48 hrs by Annexin V-FITC/propidium iodide staining based flow cytometry (reference value: 1.48%); assay type: functional
[2] = target: T1, RAC-alpha serine/threonine-protein kinase (Homo sapiens, UniProt P31749); experiment: Inhibition of AKT in human PC3 cells assessed as reduction in GSK3beta phosphorylation at 1 to 10 uM after 4 hrs by Western blot analysis; assay type: cell-based
in vitro [3] = experiment: in vitro; set-up: dose or concentration left out as unconfirmed; conditions: human, liver microsomes
Description: Half life in human liver microsomes at 10 mM preincubated for 10 mins followed by NADPH addition by LC-MS analysis

[4] = target: Serine/threonine-protein kinase B-raf (Homo sapiens) (UniProt P15056); experiment: Inhibition of BRAF (unknown origin) at 1 uM after 40 mins by scintillation counting method relative to control
[5] = target: Tyrosine-protein kinase ABL1 (Homo sapiens) (UniProt P00519); experiment: Inhibition of ABL (unknown origin) at 1 uM after 40 mins by scintillation counting method relative to control
[6] = target: Tyrosine-protein kinase JAK1 (Homo sapiens) (UniProt P23458); experiment: Inhibition of JAK1 (unknown origin) at 1 uM after 40 mins by scintillation counting method relative to control
[7] = target: T1, RAC-alpha serine/threonine-protein kinase; experiment: Inhibition of AKT1 (unknown origin) at 10 nM after 40 mins by scintillation counting method relative to control
PC-3 [8] = experiment: Antiproliferative activity against human PC3 cells after 72 hrs by MTT assay; assay type: functional, cell-based; conditions: PC-3, 72 h
Homo sapiens [9] = organism: Homo sapiens; experiment: Selectivity ratio of compound effect for inhibition of AKT3 (unknown origin) to compound effect for inhibition of AKT2 (unknown origin)
[10] = target: T2, Aurora kinase A (Homo sapiens) (UniProt O14965); experiment: Inhibition of Aurora A (unknown origin) at 1 uM after 40 mins by scintillation counting method relative to control
T2 sequence (whole entry): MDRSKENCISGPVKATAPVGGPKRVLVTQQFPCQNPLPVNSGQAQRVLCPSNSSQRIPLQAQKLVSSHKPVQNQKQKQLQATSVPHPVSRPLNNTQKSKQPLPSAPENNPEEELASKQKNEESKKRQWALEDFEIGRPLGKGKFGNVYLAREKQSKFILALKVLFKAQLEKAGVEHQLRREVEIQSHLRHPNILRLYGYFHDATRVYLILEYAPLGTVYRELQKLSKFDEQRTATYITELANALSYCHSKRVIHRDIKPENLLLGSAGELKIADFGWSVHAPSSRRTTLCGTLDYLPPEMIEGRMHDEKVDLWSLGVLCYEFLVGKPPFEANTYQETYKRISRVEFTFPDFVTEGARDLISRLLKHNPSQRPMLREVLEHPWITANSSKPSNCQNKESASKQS

Homo sapiens [11] = organism: Homo sapiens; experiment: Selectivity ratio of compound effect for inhibition of AKT1 (unknown origin) to compound effect for inhibition of AKT2 (unknown origin)
Homo sapiens [12] = organism: Homo sapiens; experiment: Inhibition of PKA (unknown origin) at 1 uM after 40 mins by scintillation counting method relative to control
[13] = target: Glycogen synthase kinase-3 beta (Homo sapiens) (UniProt P49841); experiment: Inhibition of GSK3beta (unknown origin) at 1 uM after 40 mins by scintillation counting method relative to control
[14] = target: Cyclin-dependent kinase 1 (Homo sapiens) (UniProt P06493); experiment: Inhibition of CDK1 (unknown origin) at 1 uM after 40 mins by scintillation counting method relative to control
PC-3 [15] = experiment: Induction of apoptosis in human PC3 cells assessed as early apoptotic cells at 5 uM after 48 hrs by Annexin V-FITC/propidium iodide staining based flow cytometry (reference value: 1.05%); assay type: functional
PC-3 [16] = experiment: Induction of apoptosis in human PC3 cells assessed as early apoptotic cells at 10 uM after 48 hrs by Annexin V-FITC/propidium iodide staining based flow cytometry (reference value: 1.05%); assay type: functional
in vitro [17] = experiment: in vitro; set-up: dose or concentration left out as unconfirmed; conditions: human, liver microsomes; remark: listed apart in the source
Description: Intrinsic clearance in human liver microsomes at 10 mM preincubated for 10 mins followed by NADPH addition and measured after 5 to 60 mins by LC-MS analysis

[18] = target: RAF proto-oncogene serine/threonine-protein kinase (Homo sapiens) (UniProt P04049); experiment: Inhibition of RAF1 (unknown origin) at 1 uM after 40 mins by scintillation counting method relative to control
PC-3 [19] = experiment: Induction of apoptosis in human PC3 cells assessed as live cells at 1 uM after 48 hrs by Annexin V-FITC/propidium iodide staining based flow cytometry (reference value: 97.19%); assay type: functional
[20] = target: T3, 3-phosphoinositide-dependent protein kinase 1 (Homo sapiens) (UniProt O15530); experiment: Inhibition of PDK1 (unknown origin) at 1 uM after 40 mins by scintillation counting method relative to control
T3 sequence (whole entry): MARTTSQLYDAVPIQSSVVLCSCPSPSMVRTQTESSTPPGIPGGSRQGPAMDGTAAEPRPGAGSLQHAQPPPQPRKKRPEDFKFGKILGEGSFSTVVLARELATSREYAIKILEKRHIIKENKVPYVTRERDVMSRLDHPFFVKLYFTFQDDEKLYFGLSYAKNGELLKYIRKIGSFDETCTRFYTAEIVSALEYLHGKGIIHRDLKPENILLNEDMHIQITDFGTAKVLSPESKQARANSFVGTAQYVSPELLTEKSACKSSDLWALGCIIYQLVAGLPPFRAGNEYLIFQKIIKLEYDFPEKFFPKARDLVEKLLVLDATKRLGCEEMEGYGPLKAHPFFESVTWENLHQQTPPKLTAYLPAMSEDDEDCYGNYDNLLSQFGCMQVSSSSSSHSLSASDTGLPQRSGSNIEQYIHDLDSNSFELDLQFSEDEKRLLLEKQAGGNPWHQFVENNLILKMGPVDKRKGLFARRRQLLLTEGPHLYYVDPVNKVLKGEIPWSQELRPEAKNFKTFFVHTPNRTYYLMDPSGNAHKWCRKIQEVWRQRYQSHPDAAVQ

[21] = target: RAC-beta serine/threonine-protein kinase (Homo sapiens) (UniProt P31751); experiment: Inhibition of AKT2 (unknown origin) at 10 nM after 40 mins by scintillation counting method relative to control
[22] = target: T1, RAC-alpha serine/threonine-protein kinase; experiment: Inhibition of AKT1 (unknown origin) at 1 uM using biotin-labelled STK as substrate measured after 45 mins by HTRF method relative to control
[23] = target: Ribosomal protein S6 kinase (Homo sapiens) (UniProt P51812+Q9UBS0+O75676+Q15349+O75582+P23443+Q9UK32+Q15418); experiment: Inhibition of p70S6K (unknown origin) at 1 uM after 40 mins by scintillation counting method relative to control; assay type: protein assay
[24] = target: Protein kinase C alpha type (Homo sapiens) (UniProt P17252); experiment: Inhibition of PKCalpha (unknown origin) at 1 uM after 40 mins by scintillation counting method relative to control
[25] = target: Rho-associated protein kinase 1 (Homo sapiens) (UniProt Q13464); experiment: Inhibition of ROCK1 (unknown origin) at 1 uM after 40 mins by scintillation counting method relative to control
PC-3 [26] = experiment: Induction of apoptosis in human PC3 cells assessed as necrotic cells at 10 uM after 48 hrs by Annexin V-FITC/propidium iodide staining based flow cytometry (reference value: 1.48%); assay type: functional

T1 sequence (P31749 whole entry): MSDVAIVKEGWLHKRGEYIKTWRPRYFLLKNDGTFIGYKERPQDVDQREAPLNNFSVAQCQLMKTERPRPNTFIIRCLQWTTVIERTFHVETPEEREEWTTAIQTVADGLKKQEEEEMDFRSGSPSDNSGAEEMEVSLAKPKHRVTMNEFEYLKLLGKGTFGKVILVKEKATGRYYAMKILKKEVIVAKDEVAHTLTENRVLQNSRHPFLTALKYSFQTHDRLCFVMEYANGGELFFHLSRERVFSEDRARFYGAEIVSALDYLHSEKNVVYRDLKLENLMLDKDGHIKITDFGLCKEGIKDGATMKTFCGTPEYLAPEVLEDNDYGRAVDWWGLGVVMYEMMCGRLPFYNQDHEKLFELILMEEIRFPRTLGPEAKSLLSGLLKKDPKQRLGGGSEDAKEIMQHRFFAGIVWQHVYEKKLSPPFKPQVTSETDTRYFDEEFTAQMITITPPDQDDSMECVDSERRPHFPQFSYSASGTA
Serine/threonine-protein kinase B-raf (Homo sapiens), sequence (P15056 whole entry): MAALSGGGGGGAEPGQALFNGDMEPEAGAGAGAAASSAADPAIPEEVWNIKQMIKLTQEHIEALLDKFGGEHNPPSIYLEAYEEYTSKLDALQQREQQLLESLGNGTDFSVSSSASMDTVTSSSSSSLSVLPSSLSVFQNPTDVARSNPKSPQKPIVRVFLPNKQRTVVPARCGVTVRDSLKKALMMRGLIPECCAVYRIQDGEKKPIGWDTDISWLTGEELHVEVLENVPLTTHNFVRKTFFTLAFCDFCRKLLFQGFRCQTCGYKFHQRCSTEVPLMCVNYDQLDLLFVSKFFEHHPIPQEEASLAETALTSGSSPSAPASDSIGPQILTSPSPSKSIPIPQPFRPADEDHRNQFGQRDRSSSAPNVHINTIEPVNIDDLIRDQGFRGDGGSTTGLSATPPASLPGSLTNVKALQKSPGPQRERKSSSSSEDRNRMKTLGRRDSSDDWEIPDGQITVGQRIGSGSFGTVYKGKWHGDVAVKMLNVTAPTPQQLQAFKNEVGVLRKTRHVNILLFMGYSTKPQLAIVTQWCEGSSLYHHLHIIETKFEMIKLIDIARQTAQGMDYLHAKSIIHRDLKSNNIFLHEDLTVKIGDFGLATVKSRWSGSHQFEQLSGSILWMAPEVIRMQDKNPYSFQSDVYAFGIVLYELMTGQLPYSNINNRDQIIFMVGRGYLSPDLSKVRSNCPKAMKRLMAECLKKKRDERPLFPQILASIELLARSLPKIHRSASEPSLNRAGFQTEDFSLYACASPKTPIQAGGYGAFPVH
Glycogen synthase kinase-3 beta (Homo sapiens), sequence (P49841 whole entry, looked up): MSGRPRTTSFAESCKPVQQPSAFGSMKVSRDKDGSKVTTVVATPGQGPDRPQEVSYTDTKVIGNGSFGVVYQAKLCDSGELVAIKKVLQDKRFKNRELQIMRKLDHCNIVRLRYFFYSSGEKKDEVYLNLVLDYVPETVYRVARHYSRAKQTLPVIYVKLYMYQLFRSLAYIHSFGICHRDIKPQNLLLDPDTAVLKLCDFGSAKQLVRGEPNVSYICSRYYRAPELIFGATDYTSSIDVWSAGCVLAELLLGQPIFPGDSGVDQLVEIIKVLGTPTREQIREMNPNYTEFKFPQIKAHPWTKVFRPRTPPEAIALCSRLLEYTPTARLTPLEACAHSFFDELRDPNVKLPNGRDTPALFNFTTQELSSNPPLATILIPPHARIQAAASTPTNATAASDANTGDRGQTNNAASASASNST
RAC-beta serine/threonine-protein kinase (Homo sapiens), sequence (P31751 whole entry): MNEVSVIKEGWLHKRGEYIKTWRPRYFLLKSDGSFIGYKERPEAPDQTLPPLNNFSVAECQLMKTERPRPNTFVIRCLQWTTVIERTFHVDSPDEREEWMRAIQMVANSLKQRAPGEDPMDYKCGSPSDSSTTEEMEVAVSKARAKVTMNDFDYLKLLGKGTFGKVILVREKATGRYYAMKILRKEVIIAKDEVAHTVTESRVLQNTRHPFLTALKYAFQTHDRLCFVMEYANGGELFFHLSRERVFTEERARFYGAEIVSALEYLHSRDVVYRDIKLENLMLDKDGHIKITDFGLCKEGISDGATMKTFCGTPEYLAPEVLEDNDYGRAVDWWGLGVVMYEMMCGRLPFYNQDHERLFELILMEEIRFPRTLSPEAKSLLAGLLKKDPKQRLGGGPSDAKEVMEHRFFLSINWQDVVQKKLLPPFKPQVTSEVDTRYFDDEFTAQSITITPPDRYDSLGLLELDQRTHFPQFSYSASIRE
RAF proto-oncogene serine/threonine-protein kinase (Homo sapiens), sequence (P04049 whole entry): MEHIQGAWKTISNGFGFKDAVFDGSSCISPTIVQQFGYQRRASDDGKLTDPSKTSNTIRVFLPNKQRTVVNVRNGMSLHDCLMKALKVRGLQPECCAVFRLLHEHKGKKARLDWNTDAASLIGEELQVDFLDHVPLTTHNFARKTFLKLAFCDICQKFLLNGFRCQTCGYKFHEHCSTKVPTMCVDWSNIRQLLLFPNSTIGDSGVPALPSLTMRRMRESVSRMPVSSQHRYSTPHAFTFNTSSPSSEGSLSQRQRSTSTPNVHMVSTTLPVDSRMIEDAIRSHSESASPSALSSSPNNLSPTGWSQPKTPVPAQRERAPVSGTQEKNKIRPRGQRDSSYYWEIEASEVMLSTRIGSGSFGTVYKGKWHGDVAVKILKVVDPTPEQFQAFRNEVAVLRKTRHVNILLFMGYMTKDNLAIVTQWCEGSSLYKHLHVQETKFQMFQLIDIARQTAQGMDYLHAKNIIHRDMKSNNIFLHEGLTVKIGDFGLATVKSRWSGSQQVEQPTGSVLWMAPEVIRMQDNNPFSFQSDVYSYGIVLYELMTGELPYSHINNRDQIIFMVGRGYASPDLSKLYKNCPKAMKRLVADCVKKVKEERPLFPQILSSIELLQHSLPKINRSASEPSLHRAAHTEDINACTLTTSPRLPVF
Tyrosine-protein kinase JAK1 (Homo sapiens), sequence (P23458 whole entry): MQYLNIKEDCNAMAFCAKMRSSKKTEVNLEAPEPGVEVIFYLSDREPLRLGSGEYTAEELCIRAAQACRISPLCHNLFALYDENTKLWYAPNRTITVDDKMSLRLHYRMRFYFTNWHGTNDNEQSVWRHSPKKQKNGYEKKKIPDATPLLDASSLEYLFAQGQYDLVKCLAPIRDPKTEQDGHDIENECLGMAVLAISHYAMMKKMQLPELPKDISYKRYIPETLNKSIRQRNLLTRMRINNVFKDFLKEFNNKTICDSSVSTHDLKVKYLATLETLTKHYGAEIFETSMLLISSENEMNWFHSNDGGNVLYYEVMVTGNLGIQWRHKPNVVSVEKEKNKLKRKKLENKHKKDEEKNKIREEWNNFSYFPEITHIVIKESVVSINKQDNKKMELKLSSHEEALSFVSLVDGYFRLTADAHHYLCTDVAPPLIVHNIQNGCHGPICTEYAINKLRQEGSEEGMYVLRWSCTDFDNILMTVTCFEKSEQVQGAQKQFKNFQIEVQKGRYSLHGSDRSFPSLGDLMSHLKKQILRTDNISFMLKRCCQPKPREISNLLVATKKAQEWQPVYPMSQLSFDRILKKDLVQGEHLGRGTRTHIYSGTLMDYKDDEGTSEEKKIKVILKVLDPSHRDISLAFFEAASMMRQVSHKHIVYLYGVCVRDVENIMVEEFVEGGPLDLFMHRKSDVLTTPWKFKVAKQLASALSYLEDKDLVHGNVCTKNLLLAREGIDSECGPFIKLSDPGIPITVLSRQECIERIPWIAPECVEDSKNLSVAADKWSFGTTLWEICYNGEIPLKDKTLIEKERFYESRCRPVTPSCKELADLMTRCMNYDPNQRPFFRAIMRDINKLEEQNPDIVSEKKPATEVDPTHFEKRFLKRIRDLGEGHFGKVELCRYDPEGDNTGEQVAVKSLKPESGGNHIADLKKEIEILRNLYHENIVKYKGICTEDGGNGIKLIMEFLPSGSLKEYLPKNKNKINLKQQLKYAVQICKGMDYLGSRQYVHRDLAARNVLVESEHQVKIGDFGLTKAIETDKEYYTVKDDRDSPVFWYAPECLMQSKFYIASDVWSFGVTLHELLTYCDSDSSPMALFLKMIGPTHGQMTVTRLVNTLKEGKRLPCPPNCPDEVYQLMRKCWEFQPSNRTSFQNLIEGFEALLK
Cyclin-dependent kinase 1 (Homo sapiens), sequence (P06493 whole entry, looked up): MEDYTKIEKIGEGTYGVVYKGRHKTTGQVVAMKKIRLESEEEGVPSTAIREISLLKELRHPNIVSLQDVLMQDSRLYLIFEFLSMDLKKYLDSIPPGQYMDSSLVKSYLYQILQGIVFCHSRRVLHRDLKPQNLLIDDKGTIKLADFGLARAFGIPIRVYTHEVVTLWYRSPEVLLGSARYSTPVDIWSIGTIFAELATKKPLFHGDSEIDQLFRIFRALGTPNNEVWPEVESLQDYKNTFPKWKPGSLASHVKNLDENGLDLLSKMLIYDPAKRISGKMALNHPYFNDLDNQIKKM

**Q.** With `O=C(N1CCN(c2ncnc3[nH]nc(Cl)c23)CC1)C1(c2ccc(Cl)c(Cl)c2)CCNCC1` as the compound, how does the Activity (PC-3 [1]) read?
**A.** 2%

**Q.** What about the inhibition [2] of the same compound?
**A.** inactive

**Q.** What about the half-life (in vitro [3]) of the same compound?
**A.** > 2.42 h

**Q.** And the inhibition [4]?
**A.** inactive

**Q.** And the inhibition [5]?
**A.** inactive

**Q.** What about the inhibition [6] of the same compound?
**A.** inactive

**Q.** And the inhibition [7]?
**A.** 82%

**Q.** And the IC50 (PC-3 [8])?
**A.** 3.7 µM

**Q.** What about the Selectivity ratio (Homo sapiens [9]) of the same compound?
**A.** > 2

**Q.** What about the inhibition [10] of the same compound?
**A.** 64%

**Q.** What about the Selectivity ratio (Homo sapiens [11]) of the same compound?
**A.** > 2

**Q.** And the inhibition (Homo sapiens [12])?
**A.** 99%

**Q.** And the inhibition [13]?
**A.** inactive

**Q.** What about the inhibition [14] of the same compound?
**A.** inactive

**Q.** What about the Activity (PC-3 [15]) of the same compound?
**A.** 3.93%

**Q.** And the Activity (PC-3 [16])?
**A.** 11.23%

**Q.** What about the CLint scaled (in vitro [17]) of the same compound?
**A.** < 8.6 mL/min/kg

**Q.** What about the microsomal CLint (in vitro [17]) of the same compound?
**A.** < 9.6 µL/min/mg

**Q.** What about the inhibition [18] of the same compound?
**A.** inactive

**Q.** What about the Activity (PC-3 [19]) of the same compound?
**A.** 90.48%

**Q.** What about the inhibition [20] of the same compound?
**A.** inactive

**Q.** What about the inhibition [21] of the same compound?
**A.** 38%

**Q.** What about the inhibition [22] of the same compound?
**A.** 94.3%

**Q.** What about the inhibition [23] of the same compound?
**A.** 99%

**Q.** What about the inhibition [24] of the same compound?
**A.** inactive

**Q.** And the inhibition [25]?
**A.** inactive

**Q.** And the Activity (PC-3 [26])?
**A.** 3.24%
